According to patent publication US20260199383A1 (priority 2022, published 2026):
Converted amounts (≈) assume the structure as drawn. Where two headings read alike, the source gives them in different places.

Assays:
[1] = test system: CuFi-1 cells; assay: Fluorescence microscopic assay of airway surface liquid (ASL) pH in CuFi-1 cells; format: cell-based, human
Protocol: Cell Lines and Growth Conditions. NuLi, CuFi-1, and CuFi-4 cells (Welsh Laboratory, University of Iowa) were grown from cryostock on Thermo Scientific BioLite Cell Culture Treated 75 cm^2 flasks. These flasks were previously coated with 4 mL of 60 μg/mL human placental collagen type IV (Sigma-Aldrich) for a minimum of 1 h at 37° C., rinsed twice with PBS, and then dried before seeding. The cells were cultured with 12 mL Bronchial Epithelial Cell Growth Medium (BEGM) BulletKit (Lonza CC-3170), which includes the basal medium and eight SingleQuots of supplements (bovine pituitary extract (BPE), 2 mL; hydrocortisone, 0.5 mL; hEGF, 0.5 mL; adrenaline, 0.5 mL; transferrin, 0.5 mL; insulin, 0.5 mL; retinoic acid, 0.5 mL; triiodothyronine, 0.5 mL). The gentamicin-AmB aliquot was discarded, and the medium was instead supplemented with 50 μg/mL penicillin-streptomycin (Corning Cellgro), 50 μg/mL gentamicin (Sigma-Aldrich G1397), and 2 μg/mL fluconazole (Sigma-Aldrich). […]
Fluorescence Microscopic Assay for Measurement of Airway Surface Liquid pH. […] Following dissolution in methanol, the AmB concentration in the stock suspension was measured in triplicate by absorbance spectroscopy. Concentrations were calculated from the absorbance at 406 nm (8406=164,000 M^−1 cm^−1) using Beer's law. […]
Small-diameter NuLi and CuFi cells were used for measurement of the ASL pH. […] ASL pH was measured 2 h later. […]

[2] = cited from earlier work
[3] = test system: CuFi-1 cells; conditions: cited from earlier work; for ASL pH / ΔpH: ref [1]; for ΔpH: vs vehicle control
[4] = Solubility of AmB in aqueous media; format: physicochemical; conditions: 37° C.
[5] = test system: primary cultured airway epithelial cells from individuals with CF; conditions: Primary human CF, 2 μM, ref [1], cited from earlier work
[6] = test system: CuFi-4 cells; conditions: cited from earlier work
[7] = Particle size of wet-milled AmB suspensions (Malvern Mastersizer); format: physicochemical

In the case of `C[C@@H]1[C@H](O)[C@@H](C)/C=C/C=C/C=C/C=C/C=C/C=C/C=C/[C@H](O[C@@H]2O[C@H](C)[C@@H](O)[C@H](N)[C@@H]2O)C[C@@H]2O[C@](O)(C[C@@H](O)C[C@@H](O)[C@H](O)CC[C@@H](O)C[C@@H](O)CC(=O)O[C@H]1C)C[C@H](O)[C@H]2C(=O)O` [AmB, amphotericin B], the “effect on ASL pH” value ([1]; CuFi-1, 2 μM in perfluorocarbon vehicle) is given as “effective”, the “effect on ASL pH” value ([1]; CuFi-1, 50 μM AmB) is given as “not at a 50 μM AmB concentration” and the “pKa amine group on the mycosamine ring” value [2] is given as 10.0. The pKa carboxylate group [2] was 5.7, the “ASL pH” value ([3]; CuFi-1, 2 μM) was 7.06 and the ΔpH ([3]; CuFi-1, 2 μM) was “+0.18”. The “ASL pH” value ([3]; CuFi-1, 50 μM) was 6.80, the ΔpH ([3]; CuFi-1, 50 μM) was “+0.02” and the “solubility in Gamble's solution” value [4] was 0.2 µg/mL (≈ 0.216 µM). The “solubility in dilute Alveofact” value [4] was 0.2 µg/mL (≈ 0.216 µM), the solubility in water [4] was 0.5 µg/mL (≈ 0.541 µM) and the “ASL pH” value [5] was 6.97. The ΔpH ([5]; vs vehicle control) was “+0.21”.

For `CC(C)(C)c1cc(C(C)(C)C)c(NC(=O)c2c[nH]c3ccccc3c2=O)cc1O` [Ivacaftor, ivacaftor], the “ASL pH” value ([3]; CuFi-1, 2 μM) is listed as 6.82, the ΔpH ([3]; CuFi-1, 2 μM) is listed as “+0.07” and the “increase in ASL pH” value ([3]; CuFi-1 cells with homozygous ΔF508 mutations) is listed as “minimal increase in ASL pH”. For the same compound, the “ASL pH” value ([6]; CuFi-4, 2 μM, ref [1]) was 6.92, the ΔpH ([6]; CuFi-4, 2 μM, vs vehicle control, ref [1]) was “+0.17” and the “increase in ASL pH” value ([6]; CuFi-4 cells) was “about 0.2 pH units”.

With `C[C@@H]1[C@H](O)[C@@H](C)/C=C/C=C/C=C/C=C/C=C/C=C/C=C/[C@H](O[C@@H]2O[C@H](C)[C@@H](O)[C@H](N)[C@@H]2O)C[C@@H]2O[C@](O)(C[C@@H](O)C[C@@H](O)[C@H](O)CC[C@@H](O)C[C@@H](O)CC(=O)O[C@H]1C)C[C@H](O)[C@H]2C(=O)O` [′202, amphotericin B] the “Primary Particle Size X50 after wet-milling” value (from here on “Primary Particle Size X50”) ([7]; 1 pass (15 kpsi)) was 3.01 μm, the “Primary Particle Size X90 after wet-milling” value (shortened to “Primary Particle Size X90”) ([7]; 1 pass (15 kpsi)) was 6.93 μm and the “Primary Particle Size X50” value ([7]; 3 passes (15, 15, 20 kpsi)) was 2.16 μm. For the same compound, the “Primary Particle Size X90” value ([7]; 3 passes (15, 15, 20 kpsi)) was 5.99 μm.

For `C[C@@H]1[C@H](O)[C@@H](C)/C=C/C=C/C=C/C=C/C=C/C=C/C=C/[C@H](O[C@@H]2O[C@H](C)[C@@H](O)[C@H](N)[C@@H]2O)C[C@@H]2O[C@](O)(C[C@@H](O)C[C@@H](O)[C@H](O)CC[C@@H](O)C[C@@H](O)CC(=O)O[C@H]1C)C[C@H](O)[C@H]2C(=O)O` [′203, amphotericin B], the “Primary Particle Size X50” value ([7]; 1 pass (15 kpsi)) was 1.14 μm, the “Primary Particle Size X90” value ([7]; 1 pass (15 kpsi)) was 2.46 μm and the “Primary Particle Size X50” value ([7]; 3 passes (15, 15, 20 kpsi)) was 1.06 μm. The “Primary Particle Size X90” value ([7]; 3 passes (15, 15, 20 kpsi)) was 2.14 μm.
